From patent publication US9034846B2, “Use of cyclodextrin for treatment and prevention of bronchial inflammatory diseases” (UNIVERSITE DE LIEGE, priority 2004, dated 2015) come the findings set out here.

Experiment [1] relates to OVA exposed mice. Put plainly: Peribronchial eosinophil infiltration (Congo Red), OVA mouse model. To be noted: FIG. 3. In kind it is in vivo. As to the method: (§1) In order to study modulation of airway inflammation, males BALB/c mice of 6 to 8 weeks old were sensitized by intraperitoneal injection of 10 μg ovalbumin (OVA) (Sigma Aldrich, Schnelldorf, Germany) emulsified in aluminum hydroxyde (AlumInject; Perbio, Erembodegem, Belgium) on days 1 and 8. Mice were subsequently exposed to allergens by daily inhalation of an aerosol of OVA 1%, for 30 minutes, generated by ultrasonic nebulizer (Devilbiss 2000), from day 21 to 27. Mice were subjected to inhalation of β-CD, HP-β-CD HP 1, 7.5, 50 mM and HP-β-CD 50 mM 30 minutes before OVA inhalation. Mice were sacrificed performed on day 28 as previously reported by Cataldo and al in Am. J. Pathol 2002; 161(2):491-498.
(§2) After BAL, the thorax was opened and the left main bronchus was clamped. The left lung was excised and frozen immediately at −80° C. for protein and mRNA extraction. The right lung was infused with 4 ml paraformaldehyde 4%, embedded in paraffin and used for histology. Sections of 5 μm thickness were cut off from paraffin and were stained with haematoxylin-eosin. The extent of peribronchial inflammation was estimated by a score calculated by quantification of peribronchial inflammatory cells, as previously described by Cataldo D D, Tournoy K G, Vermaelen K et al. in Am J Pathol 2002; 161(2):491-498. A value of 0 was adjudged when no inflammation was detectable, a value of 1 when there was occasionally inflammatory cells, a value of 2 when most bronchi were surrounded by a thin layer (1 to 5 cells) of inflammatory cells and a value of 3 when most bronchi were surrounded by a thick layer (>5 cells) of inflammatory cells. Since 5-7 randomly selected tissue sections per mouse were scored, inflammation scores are expressed as a mean value and can be compared between groups. After Congo Red staining, the eosinophilic infiltration in the airway walls was quantified by manual count and reported to the perimeter of epithelial basement membrane defining an eosinophilic inflammatory score.

Experiment [2] has as its system IL-13. Put plainly: IL-13 ELISA in BAL and lung protein extracts, OVA mouse model. The experiment is classed as in vivo. As for the experimental part: as §1
The left lung was crushed using a Mikro-Dismembrator (Braun Biotech International, Gmbh Melsungen, Germany). For proteins extraction, the crushed lung tissue was incubated overnight at 4° C. in a solution containing 2M urea, 1M NaCl and 50 mM Tris (pH 7.5) and subsequently centrifuged 15 minutes at 16.000×g. The supernatant was stored at −80° C.
(§3) Eotaxin and IL-13 levels were assessed using commercial ELISAs (R&D systems, Abingdon, UK). Eotaxin was measured by incubation in a wheel coated with a primary antibody specifically dedicated to the recognition of the protein and after rinsing, a second antibody against eotaxin, coupled with horse radish peroxydase was used to quantify the amounts of eotaxin in the solution
IL-13 was measured by incubation in a wheel coated with a primary antibody specifically dedicated to the recognition of the protein and after rinsing, a second antibody against IL-13, coupled with horse radish peroxydase was used to quantify the amounts of […] in the solution.
On the technique in general: An ELISA detects its analyte on a solid surface through an enzyme-linked reagent.

For experiment [3], the system named is CXCL-1. Kind of experiment: CXCL-1 ELISA in lung protein extracts, OVA-induced inflammation model. To be noted: aerosolized 15 mM, vs placebo-exposed mice, FIG. 12. The experiment is classed as in vivo, mouse. As for the experimental part: In ovalbumin (OVA)-induced inflammation model, mice were immunized by intraperitoneal injection of OVA (10 μg) (Sigma Aldrich, Schnelldorf, Germany) and aluminium hydroxyde on days 0 and 7. From days 21 to 25, mice were exposed to inhalation of 1% OVA or PBS (phosphate buffer saline) for 30 minutes. Airway hyperresponsiveness was measured on day 26 before sacrifice. Mice were either exposed to aerosolized hydroxypropyl-beta-cyclodextrin (15 mM) or PBS for […] 6 hours before allergen exposure.
After sacrifice, thorax was opened and the right lungs were excised and snap frozen in liquid nitrogen for protein extraction. The left lung was insufflated at constant pressure with 4% paraformaldehyde and embedded in paraffin for further histological analysis. A peribronchial inflammation score was applied on each hematoxylin-eosin stained slide as previously reported (Cataldo et al Am J Pathol 2002). A value from 0 to 2 was adjudged to each bronchus. […] Six bronchi per mice were counted and statistical analysis was performed by using GraphPad Program. […] ELISA for CXCL-1 on lung protein extracts were assessed using antibodies from R&D Systems and the R&D Duoset® Elisa Development kit (R&D Systems, Minneapolis, Minn., USA).

In experiment [4] the test system is Eotaxin. Kind of experiment: Eotaxin ELISA in lung protein extracts, OVA mouse model. Conditions: all doses tested, compared to placebo; FIG. 7a. The experiment is classed as in vivo. As for the experimental part:
as §1
The left lung was crushed using a Mikro-Dismembrator (Braun Biotech International, Gmbh Melsungen, Germany). For proteins extraction, the crushed lung tissue was incubated overnight at 4° C. in a solution containing 2M urea, 1M NaCl and 50 mM Tris (pH 7.5) and subsequently centrifuged 15 minutes at 16.000×g. […]
as §3

For experiment [5], the system named is LPS-induced peribronchial inflammation. Kind of experiment: Peribronchial inflammation score, LPS-induced inflammation model. Conditions: aerosolized 15 mM, vs placebo, FIG. 14. In kind it is in vivo, mouse. As to the method:
In lipopolysaccharide (LPS)-induced inflammation model, mice were exposed to 3 μg LPS diluted in 100 μl of PBS or PBS (phosphate buffer saline) only administered by direct tracheal instillations at day 1 and 5 of the protocol. Mice were daily exposed either to aerosolized hydroxypropyl-beta-cyclodextrin (15 mM) or PBS for 30 min from day 0 to 5 (6 hours after LPS or sham exposure at days 1 and 5). Mice were sacrificed at day 6.
After sacrifice, thorax was opened and the right lungs were excised and snap frozen in liquid nitrogen for protein extraction. The left lung was insufflated at constant pressure with 4% paraformaldehyde and embedded in paraffin for further histological analysis. A peribronchial inflammation score was applied on each hematoxylin-eosin stained slide as previously reported (Cataldo et al Am J Pathol 2002). A value from 0 to 2 was adjudged to each bronchus. Score of 0 corresponded to bronchi without inflammation; score 1 to occasional mononuclear cells observed around bronchi, and score 2 to 1 to 5 layer(s) of inflammatory cells around bronchi. Six bronchi per mice were counted and statistical analysis was performed by using GraphPad Program. […] ELISA for CXCL-1 on lung protein extracts were assessed using antibodies from R&D Systems and the R&D Duoset® Elisa Development kit (R&D Systems, Minneapolis, Minn., USA).

Experiment [6] deals with OVA exposed mice. Put plainly: Peribronchial inflammation score by histology, OVA mouse model. Conditions: 1, 7.5 and 50 mM, compared to placebo; FIG. 2. In kind it is in vivo. As to the method:
In order to study modulation of airway inflammation, males BALB/c mice of 6 to 8 weeks old were sensitized by intraperitoneal injection of 10 μg ovalbumin (OVA) (Sigma Aldrich, Schnelldorf, Germany) emulsified in aluminum hydroxyde (AlumInject; Perbio, Erembodegem, Belgium) on days 1 and 8. Mice were subsequently exposed to allergens by daily inhalation of an aerosol of OVA 1%, for 30 minutes, generated by ultrasonic nebulizer (Devilbiss 2000), from day 21 to 27. […] Mice were sacrificed performed on day 28 as previously reported by Cataldo and al in Am. J. Pathol 2002; 161(2):491-498.
as §2

On to hydroxypropyl-βcyclodextrin [HP-β-CD], for which the peribronchial eosinophil infiltration entry in experiment [1] (50 mM) is recorded as “decrease reached statistical significance”; in experiment [1] (1 and 7.5 mM) it was “decrease reached statistical significance”. In experiment [2] (50 mM, FIG. 11), the “levels of IL-13 in whole lung protein extracts” value is reported as “significantly decreased”. Also, the “IL-13 levels in BAL” value in experiment [2] (FIG. 7b) is “decreased”. In addition, the “Levels of CXCL-1 in lung protein extracts” value in experiment [3] is recorded as “significantly decreased”. Moreover, the “levels of eotaxin in lung protein extracts” value in experiment [4] was “decrease”. Further, the Peribronchial inflammation entry in experiment [5] is given as “significantly lower”. Moreover, in experiment [6], the peribronchial inflammation score result was “decreased inflammation score”.
